Data from patent US4162316A (priority 1975, dated 1979).

Tested on: male guinea-pigs
Test: animal or person
Assay type: in vivo
Conditions: Cavia porcellus, ip, 2 h, read-out: Antitussive activity ED50-value (i.p.)

Question: For `COc1ccccc1N1CCN(C(Cc2cccc(C)c2)c2ccccc2)CC1` (stereo not drawn) [Compound 32, l-1-(2-Methoxyphenyl)-4-[1-phenyl-2-(3-tolyl)ethyl]piperazine], which ED50 is on record?
Answer: Its ED50 is about 6 mg/kg.

Question: How did the ED50 turn out when `COc1ccc2c3c1O[C@H]1[C@@H](O)C=C[C@H]4[C@@H](C2)N(C)CC[C@@]341` [L, Codeine phosphate, reference compound] was run?
Answer: The ED50 was 12.2 mg/kg.

Question: For `COc1ccccc1N1CCN(C(Cc2cccc(C)c2)c2ccccc2)CC1` (racemic) [Compound 31, dl-1-(2-Methoxyphenyl)-4-[1-phenyl-2-(3-tolyl)ethyl]-piperazine], which ED50 is on record?
Answer: The ED50 was about 6 mg/kg.
